Assay results as given in article PMC9780937 (Molecules, 2022).
Entries after “also recorded” stand apart in the source; their conditions may differ.

Assays:
[1] = target: T1, human MOR (Homo sapiens, UniProt P35372); assay: biochemical; type: biochemical
[2] = target: T1, human MOR; assay: cell-based; type: cell-based
[3] = test system: mice; assay: Acetic acid-induced writhing assay (visceral pain); type: in vivo, mouse (male CD1); conditions: s.c.
[4] = test system: mice; assay: Conditioned place preference (CPP) test, rewarding effects; type: in vivo, mouse (male CD1); conditions: 7.4 µmol/kg s.c. daily for 4 days, vs saline; n = 8 mice per group
[5] = test system: mice; assay: Open-field test, spontaneous locomotor activity; type: in vivo, mouse (male CD1); conditions: 7.4 µmol/kg s.c. daily for 4 days, vs saline; 30 min recording; n = 8 mice per group
[6] = test system: human MOR; assay: Comparison of G protein activation ([35S]GTPγS binding) and β-arrestin2 recruitment (PathHunter)
[7] = test system: human MOR; design: method as in 2 sources, one per row (each row's own in cited_ref): ref 19 = [19]; PMID 29708942; doi:10.1097/j.pain.0000000000001262; 19. Drieu La Rochelle A. Guillemyn K. Dumitrascuta M. Martin C. Utard V. Quillet R. Schneider S. Daubeuf F. Willemse T. Mampuys P. A bifunctional-biased mu-opioid agonist-neuropeptide FF receptor anta ||| ref 19 (suppl. ref 1); conditions: cited from earlier work
[8] = test system: MOR; design: method as in 3 sources, one per row (each row's own in cited_ref): ref 19 = [19]; PMID 29708942; doi:10.1097/j.pain.0000000000001262; 19. Drieu La Rochelle A. Guillemyn K. Dumitrascuta M. Martin C. Utard V. Quillet R. Schneider S. Daubeuf F. Willemse T. Mampuys P. A bifunctional-biased mu-opioid agonist-neuropeptide FF receptor anta ||| ref suppl. ref 1 ||| ref 19 (suppl. ref 1); conditions: cited from earlier work
[9] = target: MOR; design: method as in suppl. ref 1; conditions: radioligand competitive binding; ref suppl. ref 1; read-out: Binding affinity Ki, MOR; cited from earlier work
[10] = test system: DOR; design: method as in 2 sources, one per row (each row's own in cited_ref): ref 19 = [19]; PMID 29708942; doi:10.1097/j.pain.0000000000001262; 19. Drieu La Rochelle A. Guillemyn K. Dumitrascuta M. Martin C. Utard V. Quillet R. Schneider S. Daubeuf F. Willemse T. Mampuys P. A bifunctional-biased mu-opioid agonist-neuropeptide FF receptor anta ||| ref suppl. ref 1; conditions: cited from earlier work
[11] = target: NOP receptor; design: method as in suppl. ref 1; conditions: radioligand competitive binding; ref suppl. ref 1; read-out: Binding affinity Ki, NOP receptor; cited from earlier work
[12] = test system: DOR; design: method as in 2 sources, one per row (each row's own in cited_ref): ref 19 = [19]; PMID 29708942; doi:10.1097/j.pain.0000000000001262; 19. Drieu La Rochelle A. Guillemyn K. Dumitrascuta M. Martin C. Utard V. Quillet R. Schneider S. Daubeuf F. Willemse T. Mampuys P. A bifunctional-biased mu-opioid agonist-neuropeptide FF receptor anta ||| ref suppl. ref 1; conditions: cited from earlier work; remark: listed apart in the source
[13] = test system: KOR; design: method as in 2 sources, one per row (each row's own in cited_ref): ref 19 = [19]; PMID 29708942; doi:10.1097/j.pain.0000000000001262; 19. Drieu La Rochelle A. Guillemyn K. Dumitrascuta M. Martin C. Utard V. Quillet R. Schneider S. Daubeuf F. Willemse T. Mampuys P. A bifunctional-biased mu-opioid agonist-neuropeptide FF receptor anta ||| ref suppl. ref 1; conditions: cited from earlier work
[14] = test system: NOP receptor; design: method as in 2 sources, one per row (each row's own in cited_ref): ref 19 = [19]; PMID 29708942; doi:10.1097/j.pain.0000000000001262; 19. Drieu La Rochelle A. Guillemyn K. Dumitrascuta M. Martin C. Utard V. Quillet R. Schneider S. Daubeuf F. Willemse T. Mampuys P. A bifunctional-biased mu-opioid agonist-neuropeptide FF receptor anta ||| ref suppl. ref 1; conditions: cited from earlier work
[15] = test system: NPFF1R; design: method as in suppl. ref 1; conditions: [35S]GTPγS binding assay; ref suppl. ref 1; cited from earlier work
[16] = test system: NPFF2R; design: method as in suppl. ref 1; conditions: [35S]GTPγS binding assay; ref suppl. ref 1; cited from earlier work
[17] = test system: mice; design: method as in earlier work; conditions: s.c., ref 19 (suppl. ref 1); cited from earlier work
[18] = test system: mice; design: method as in 2 sources, ref 19 (suppl. ref 1) ||| ref 19 = [19]; PMID 29708942; doi:10.1097/j.pain.0000000000001262; 19. Drieu La Rochelle A. Guillemyn K. Dumitrascuta M. Martin C. Utard V. Quillet R. Schneider S. Daubeuf F. Willemse T. Mampuys P. A bifunctional-biased mu-opioid agonist-neuropeptide FF receptor anta; conditions: s.c., cited from earlier work
[19] = test system: mice; design: method as in earlier work; conditions: s.c., 7.4 µmol/kg where stated (mechanical and thermal stimulation), ref 19 (suppl. ref 1); cited from earlier work
[20] = test system: mice; conditions: acute s.c., at effective antinociceptive doses (7.4 µmol/kg), ref 19 (suppl. ref 1); cited from earlier work
[21] = test system: mice; design: method as in suppl. ref 1; conditions: acute s.c., at effective antinociceptive doses, ref suppl. ref 1; cited from earlier work
[22] = test system: mice; design: method as in suppl. ref 1; conditions: acute s.c., at effective antinociceptive doses, ref suppl. ref 1; cited from earlier work; remark: listed apart in the source
[23] = test system: mice; conditions: chronic s.c., at effective antinociceptive doses (7.4 µmol/kg), ref 19 (suppl. ref 1); cited from earlier work
[24] = test system: mice; conditions: chronic s.c., at effective antinociceptive doses (7.4 µmol/kg), ref 19 (suppl. ref 1); cited from earlier work; remark: listed apart in the source
[25] = test system: mice; conditions: chronic s.c., at effective antinociceptive doses (7.4 µmol/kg), ref 19 (suppl. ref 1); cited from earlier work; remark: listed apart in the source
[26] = test system: neuropeptide FF receptor (NPFFR); design: method as in PMID 29708942; conditions: in vitro; cited from earlier work
[27] = test system: mice; design: method as in PMID 30571123; conditions: s.c.; cited from earlier work
[28] = test system: mice; conditions: cited from earlier work
Description: This is particularly important given the current rise in the abuse of prescription opioids, commonly MOR agonists. The MOR is established to play a major role in analgesia, but also on the undesirable opioid side effect of reward, with deletion of the gene encoding MOR (Oprm1) completely blocking opioid analgesia and reward behavior in rodents. To this aim, we used the conditioned place preference (CPP) paradigm, as described previously. The CPP is a w ...

[29] = test system: mice; conditions: 15.5 µmol/kg s.c. chronic, day 1 to day 4; cited from earlier work
[30] = in vivo; cited from earlier work
[31] = target: human mu-opioid receptor (MOR), stably expressed in CHO cells (CHO-hMOR), in membranes (human) (UniProt P35372)
[32] = relative to maximal effect of DAMGO (100%), HEK293 cells, ref 19 (suppl. ref 1)
[33] = cAMP accumulation assay, ref suppl. ref 1

T1 sequence (P35372 whole entry): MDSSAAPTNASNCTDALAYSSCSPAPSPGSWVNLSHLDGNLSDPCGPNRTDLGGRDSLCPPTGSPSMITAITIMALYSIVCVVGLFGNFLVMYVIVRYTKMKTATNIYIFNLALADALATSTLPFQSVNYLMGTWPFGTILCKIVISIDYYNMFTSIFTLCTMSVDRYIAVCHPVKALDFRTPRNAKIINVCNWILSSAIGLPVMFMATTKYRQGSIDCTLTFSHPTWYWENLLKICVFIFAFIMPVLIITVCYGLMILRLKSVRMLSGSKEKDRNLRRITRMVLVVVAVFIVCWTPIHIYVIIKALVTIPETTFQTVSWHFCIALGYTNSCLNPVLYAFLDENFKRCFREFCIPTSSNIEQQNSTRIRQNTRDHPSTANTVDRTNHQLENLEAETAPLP
human mu-opioid receptor (MOR), stably expressed in CHO cells (CHO-hMOR), in membranes (human), sequence (P35372 whole entry): as above

Cc1cc(O)cc(C)c1C[C@H](N)C(=O)N[C@H](CCCNC(=N)N)C(=O)NC1Cc2ccccc2CN(CCC(=O)NC(CCCN2CCC(Cc3ccccc3)CC2)C(=O)N[C@@H](Cc2ccccc2)C(N)=O)C1=O (stereo partly drawn) [KGFF09, H-Dmt-DArg-Aba-βAla-Bpa-Phe-NH2]
Functional profile at MOR in [35S]GTPγS binding [1]: full agonist with high G protein coupling potency
Potency increase compared to DAMGO, G protein activation [1]: four-fold increase in potency compared to DAMGO
Emax ([1]; read-out: Emax, [35S]GTPγS binding): 92 ± 9%
β-arrestin2 recruitment [2]: failed to robustly engage β-arrestin2 recruitment
Emax ([2]; read-out: Emax, β-arrestin2 recruitment (PathHunter)): 57 ± 3%
Antinociceptive ED50, writhing assay ([3]; 30 min after administration, Litchfield and Wilcoxon): 0.079 µmol/kg
Effect in writhing assay ([3]; mice): yes and dose-dependent inhibition of the writhing behavior
Potency vs morphine, writhing assay ([3]; ratio of ED50 (morphine ED50 from ref 24)): 17 fold
Rewarding effect, CPP [4]: no and no significant CPP response compared to saline-treated animals
Spontaneous locomotor activity, distance traveled [5]: no and no impairment in the locomotor activity
Decrease in potency, β-arrestin2 recruitment vs G protein activation ([6]; PathHunter vs [35S]GTPγS binding, human MOR): 153 fold
Signaling bias at MOR ([6]; [35S]GTPγS binding vs PathHunter β-arrestin2): G protein-biased MOR agonist in vitro
EC50 ([7]; HEK293 cells co-expressing cAMP Glosensor-20F and human MOR, ref 19 (suppl. ref 1), read-out: EC50, cAMP accumulation, MOR): 0.0182 µM
Functional profile in cAMP accumulation, MOR ([7]; HEK293 cells, human MOR): potent and full MOR agonist
Emax, cAMP accumulation, MOR [7, 32]: 85%
EC50 ([8]; HEK293 cells expressing eYFP-tagged β-arrestin-2, MOR-Rluc8, ref 19 (suppl. ref 1), read-out: EC50, BRET β-arrestin2 recruitment (Table S3)): 0.0564 µM
BRET β-arrestin2 recruitment and bias ([8]; HEK293 cells, MOR): reduced efficacy (acting as a partial agonist) in inducing β-arrestin2 recruitment
Signaling bias at MOR in vitro, earlier study [8]: G protein-biased MOR agonist
Emax, BRET β-arrestin2 recruitment (Table S3) [8, 32]: 42%
Ki [9]: 0.00243 µM
Binding affinity lower at DOR than at MOR ([10]; DOR vs MOR): 77 fold
Ki ([10]; radioligand competitive binding, ref suppl. ref 1, read-out: Binding affinity Ki, DOR): 0.186 µM
Ki [11]: 0.209 µM
Emax, G protein activation, DOR [12, 33]: 90%
Functional profile at DOR [12]: agonist activity at the delta opioid receptor (DOR)
Emax, G protein activation, KOR [13, 33]: 15%
EC50 ([13]; cAMP accumulation assay, ref suppl. ref 1, read-out: EC50, G protein activation, KOR): > 10 µM
Functional profile at KOR [13]: antagonist profile
Emax, G protein activation, NOP receptor [14, 33]: 7%
EC50 ([14]; cAMP accumulation assay, ref suppl. ref 1, read-out: EC50, G protein activation, NOP receptor): > 10 µM
Functional profile at NOP receptor [14]: antagonist profile
pA2, NPFF1R [15]: 7.25
pA2, NPFF2R [16]: 7.77
Antinociception, warm-water tail-withdrawal test [17]: yes and potent and long-lasting antinociceptive activity and very effective with long-lasting antinociceptive effects
Antinociception, radiant tail-flick test ([18]; ref 19 (suppl. ref 1)): yes and potent and long-lasting antinociceptive activity and very effective with long-lasting antinociceptive effects
ED90, tail-flick test [18]: 7.4 µmol/kg
Potency vs morphine, tail-flick test [18]: three-fold more potent than morphine
Relation of 7.4 µmol/kg to tail-flick ED50 [18]: three-fold antinociceptive ED50 dose
Antihyperalgesic effect, CFA-induced hyperalgesia [19]: yes and potent and long-lasting antinociceptive activity and completely reduced pain behavior of mice to mechanical and thermal stimulation and very effective with long-lasting antinociceptive effects
Respiratory depression [20]: less acute side effects; also recorded: reduced opioid-induced side effects
Constipation [21]: yes
Sedation/motor impairment [22]: yes
Opioid-induced hyperalgesia [23]: no and reduced side effects and reduced opioid-induced side effects
Antinociceptive/analgesic tolerance [24]: no and reduced side effects and reduced opioid-induced side effects
Withdrawal syndrome [25]: no and reduced side effects and reduced opioid-induced side effects
Functional profile at NPFFR [26]: NPFFR antagonist

CN1CC[C@]23c4c5ccc(O)c4O[C@H]2[C@@H](O)C=C[C@H]3[C@H]1C5 [morphine]
ED50, writhing assay (mass) [27]: 0.437 mg/kg
ED50, writhing assay (molar) [27]: 1.36 µmol/kg
Rewarding effect of morphine, CPP ([28]; 15.5 µmol/kg daily, vs saline): significant place preference compared to the saline group
CPP with narcotic drugs ([28]; mice): produce CPP
Spontaneous locomotor activity of morphine [29]: significant hyperlocomotion from day 1 to day 4
Sedation and locomotor activity [30]: known to produce sedation and to reduce locomotor activity

COc1ccc2c3c1O[C@H]1C(=O)CC[C@@]4(O)[C@@H](C2)N(C)CC[C@]314 [oxycodone]
Sedation and locomotor activity [30]: known to produce sedation and to reduce locomotor activity

KGFF09 (H-Dmt-DArg-Aba-βAla-Bpa-Phe-NH2) (peptide)
[35S]GTPγS binding (G protein activation), membranes from CHO-hMOR cells: EC50 [31]: 0.00828 µM
[35S]GTPγS binding (G protein activation), membranes from CHO-hMOR cells: Emax (% of DAMGO) [31]: 92%

[D-Ala2,N-Me-Phe4,Gly-ol5]enkephalin (DAMGO) (peptide)
[35S]GTPγS binding (G protein activation), membranes from CHO-hMOR cells: EC50 [31]: 0.035 µM
[35S]GTPγS binding (G protein activation), membranes from CHO-hMOR cells: Emax (%, the reference set to 100) [31]: 100%
